According to ChEMBL document CHEMBL1137358, “Synthetic inhibitors of cytochrome P-450 2A6: inhibitory activity, difference spectra, mechanism of inhibition, and protein cocrystallization” (J Med Chem, 2006):

Target: T1, Cytochrome P450 2B6 (Homo sapiens, UniProt P20813)
T1 sequence (P20813 whole entry): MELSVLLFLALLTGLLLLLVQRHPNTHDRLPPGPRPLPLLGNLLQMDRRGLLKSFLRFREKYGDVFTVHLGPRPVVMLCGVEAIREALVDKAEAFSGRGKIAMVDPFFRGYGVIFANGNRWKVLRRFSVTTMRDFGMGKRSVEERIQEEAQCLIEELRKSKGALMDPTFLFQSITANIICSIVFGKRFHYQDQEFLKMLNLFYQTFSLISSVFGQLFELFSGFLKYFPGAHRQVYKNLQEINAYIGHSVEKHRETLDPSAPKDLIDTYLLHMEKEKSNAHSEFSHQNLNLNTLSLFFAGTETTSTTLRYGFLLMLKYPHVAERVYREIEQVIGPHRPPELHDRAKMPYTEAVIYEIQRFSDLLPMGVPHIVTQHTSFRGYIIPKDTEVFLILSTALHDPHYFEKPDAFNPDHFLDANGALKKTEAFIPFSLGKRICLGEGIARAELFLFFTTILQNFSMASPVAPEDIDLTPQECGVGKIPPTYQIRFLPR
Test: Inhibition of human CYP2B6
Details: not given

Structure (SMILES)	Ki [µM]
c1cncc(-c2cc[nH]n2)c1	71.5
CNCc1ccc(-c2cccnc2)s1	> 400
NCc1cc(-c2cccnc2)n[nH]1	33.2
c1ccc(-c2ccsc2)cc1	14
Cc1csc(-c2cccnc2)n1	43.5

Second part, the compound after the results:

Ki [µM]	Structure (SMILES)
33.7	NCc1cc(-c2cccnc2)no1
> 400	CN(C)Cc1ccc(-c2cccnc2)o1
30	c1cncc(-c2ccsc2)c1

Tested on: CYP2A6 over CYP2C19
Test: Selectivity for CYP2A6 over CYP2C19
Details: human

Structure (SMILES)	selectivity ratio
NCc1cc(-c2cccnc2)no1	74.3
c1cncc(-c2cc[nH]n2)c1	8.5
c1cncc(-c2ccsc2)c1	81
NCc1cc(-c2cccnc2)n[nH]1	143
c1ccc(-c2ccsc2)cc1	> 32.3
Cc1csc(-c2cccnc2)n1	> 32.3

Tested on: CYP2A6 over CYP2D6
Test: Selectivity for CYP2A6 over CYP2D6
Details: human

Structure (SMILES)	selectivity ratio
NCc1cc(-c2cccnc2)no1	> 541
c1cncc(-c2cc[nH]n2)c1	12.9
c1cncc(-c2ccsc2)c1	> 286
NCc1cc(-c2cccnc2)n[nH]1	103
c1ccc(-c2ccsc2)cc1	> 32.3
Cc1csc(-c2cccnc2)n1	> 32.3

Target: Cytochrome P450 3A4 (Homo sapiens, UniProt P08684)
Test: Inhibition of human CYP3A4
Details: not given

Sequence of Cytochrome P450 3A4 (P08684 whole entry): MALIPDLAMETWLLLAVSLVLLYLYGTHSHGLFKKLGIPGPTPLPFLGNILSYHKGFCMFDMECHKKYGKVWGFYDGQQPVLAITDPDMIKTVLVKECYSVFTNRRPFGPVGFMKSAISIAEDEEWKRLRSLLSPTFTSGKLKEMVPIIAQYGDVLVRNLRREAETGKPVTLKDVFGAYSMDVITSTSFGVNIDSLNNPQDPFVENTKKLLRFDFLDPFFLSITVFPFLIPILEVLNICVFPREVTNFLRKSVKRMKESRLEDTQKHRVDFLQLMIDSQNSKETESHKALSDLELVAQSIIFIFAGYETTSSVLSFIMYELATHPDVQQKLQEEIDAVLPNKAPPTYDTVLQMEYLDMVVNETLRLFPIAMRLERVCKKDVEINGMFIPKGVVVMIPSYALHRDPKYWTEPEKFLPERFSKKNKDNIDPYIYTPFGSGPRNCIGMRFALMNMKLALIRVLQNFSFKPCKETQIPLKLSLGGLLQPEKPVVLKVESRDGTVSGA

Structure (SMILES)	Ki [µM]
c1cncc(-c2cc[nH]n2)c1	> 400
CNCc1ccc(-c2cccnc2)s1	> 400
NCc1cc(-c2cccnc2)n[nH]1	> 400
c1ccc(-c2ccsc2)cc1	> 400
Cc1csc(-c2cccnc2)n1	22.9

Next, values leading:

Ki [µM]	Structure (SMILES)
> 400	NCc1cc(-c2cccnc2)no1
29.4	NCc1ccc(-c2cccnc2)s1
147	CN(C)Cc1ccc(-c2cccnc2)o1
28	c1cncc(-c2ccsc2)c1

Tested on: CYP2A6 over CYP3A4
Test: Selectivity for CYP2A6 over CYP3A4
Details: human

Structure (SMILES)	selectivity ratio
NCc1cc(-c2cccnc2)no1	> 541
c1cncc(-c2cc[nH]n2)c1	> 15.6
c1cncc(-c2ccsc2)c1	40
NCc1cc(-c2cccnc2)n[nH]1	> 690
c1ccc(-c2ccsc2)cc1	> 32.3
Cc1csc(-c2cccnc2)n1	5.6

Tested on: CYP2A6 over CYP2C9
Test: Selectivity for CYP2A6 over CYP2C9
Details: human

Structure (SMILES)	selectivity ratio
NCc1cc(-c2cccnc2)no1	39.1
c1cncc(-c2cc[nH]n2)c1	13.4
c1cncc(-c2ccsc2)c1	69
NCc1cc(-c2cccnc2)n[nH]1	83.4
c1ccc(-c2ccsc2)cc1	> 32.3
Cc1csc(-c2cccnc2)n1	12.6

Tested on: not listed separately
Test: (§1) Stability in mouse liver microsome
Details: liver microsomes

Structure (SMILES)	half-life [h]
Cc1ccsc1-c1cccnc1	0.683
NCc1cc(-c2cccnc2)no1	6.42
c1cncc(-c2cc[nH]n2)c1	1.55
NCc1cc(-c2cccnc2)n[nH]1	2.82
c1ccc(-c2ccsc2)cc1	1.53

Same assay, conditions: microsomes

Structure (SMILES)	half-life [h]
NCc1ccc(-c2cccnc2)s1	1
Cc1csc(-c2cccnc2)n1	0.817

Species on record: Mus musculus
Test: as §1
Details: microsomes

Structure (SMILES)	Stability
Cc1nccn1-c1cccnc1	Stable
CNCc1ccc(-c2cccnc2)s1	Stable

The remaining lines, values ahead:

Stability	Structure (SMILES)
Stable	CN(C)Cc1ccc(-c2cccnc2)o1
Stable	c1cncc(-c2ccsc2)c1

Tested on: CYP2A6 over CYP2B6
Test: Selectivity for CYP2A6 over CYP2B6
Details: not given

Structure (SMILES)	selectivity ratio
NCc1cc(-c2cccnc2)no1	91.1
c1cncc(-c2cc[nH]n2)c1	5.6
c1cncc(-c2ccsc2)c1	42
NCc1cc(-c2cccnc2)n[nH]1	114
c1ccc(-c2ccsc2)cc1	0.8
Cc1csc(-c2cccnc2)n1	10.6

Target: Cytochrome P450 2D6 (Homo sapiens, UniProt P10635)
Test: Inhibition of human CYP2D6
Details: not given

Sequence of Cytochrome P450 2D6 (P10635 whole entry): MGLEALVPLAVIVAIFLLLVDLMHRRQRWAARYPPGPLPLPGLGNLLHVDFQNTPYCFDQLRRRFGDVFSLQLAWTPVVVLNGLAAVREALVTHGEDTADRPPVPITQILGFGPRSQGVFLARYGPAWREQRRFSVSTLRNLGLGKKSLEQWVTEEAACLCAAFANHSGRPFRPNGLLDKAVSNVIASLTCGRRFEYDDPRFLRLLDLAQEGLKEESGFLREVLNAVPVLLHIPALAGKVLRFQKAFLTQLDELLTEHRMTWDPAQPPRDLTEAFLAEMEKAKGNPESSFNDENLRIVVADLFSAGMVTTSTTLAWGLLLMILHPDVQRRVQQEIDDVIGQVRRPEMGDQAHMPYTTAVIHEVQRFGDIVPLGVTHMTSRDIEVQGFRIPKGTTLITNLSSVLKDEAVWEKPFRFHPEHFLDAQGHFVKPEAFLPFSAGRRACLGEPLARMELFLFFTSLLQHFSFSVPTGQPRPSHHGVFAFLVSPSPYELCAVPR

Structure (SMILES)	Ki [µM]
c1cncc(-c2cc[nH]n2)c1	165
CNCc1ccc(-c2cccnc2)s1	56.5
NCc1cc(-c2cccnc2)n[nH]1	29.8
c1ccc(-c2ccsc2)cc1	> 400
Cc1csc(-c2cccnc2)n1	> 400

Now from value to compound:

Ki [µM]	Structure (SMILES)
> 400	NCc1cc(-c2cccnc2)no1
84.5	NCc1ccc(-c2cccnc2)s1
127	CN(C)Cc1ccc(-c2cccnc2)o1
124	c1cncc(-c2ccsc2)c1

Target: Cytochrome P450 2C19 (Homo sapiens, UniProt P33261)
Test: Inhibition of human CYP2C19
Details: not given

Sequence of Cytochrome P450 2C19 (P33261 whole entry): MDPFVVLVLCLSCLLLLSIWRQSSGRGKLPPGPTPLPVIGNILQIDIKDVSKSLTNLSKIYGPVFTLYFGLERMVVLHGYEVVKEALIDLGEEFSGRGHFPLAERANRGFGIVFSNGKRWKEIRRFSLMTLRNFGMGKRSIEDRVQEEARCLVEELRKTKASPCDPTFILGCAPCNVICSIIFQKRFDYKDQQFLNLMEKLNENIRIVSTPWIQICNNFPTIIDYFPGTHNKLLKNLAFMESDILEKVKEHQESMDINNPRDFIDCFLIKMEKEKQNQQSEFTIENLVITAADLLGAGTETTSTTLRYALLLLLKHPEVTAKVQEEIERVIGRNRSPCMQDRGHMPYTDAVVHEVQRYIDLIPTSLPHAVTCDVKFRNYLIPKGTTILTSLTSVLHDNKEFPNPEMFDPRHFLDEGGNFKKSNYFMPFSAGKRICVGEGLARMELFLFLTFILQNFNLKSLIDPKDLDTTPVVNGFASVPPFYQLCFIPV

Structure (SMILES)	Ki [µM]
c1cncc(-c2cc[nH]n2)c1	109
CNCc1ccc(-c2cccnc2)s1	29.9
NCc1cc(-c2cccnc2)n[nH]1	41.4
c1ccc(-c2ccsc2)cc1	107
Cc1csc(-c2cccnc2)n1	> 400

Results, then the compound that gave them:

Ki [µM]	Structure (SMILES)
27.5	NCc1cc(-c2cccnc2)no1
79	CN(C)Cc1ccc(-c2cccnc2)o1
55.6	c1cncc(-c2ccsc2)c1

Target: Cytochrome P450 2C9 (Homo sapiens, UniProt P11712)
Test: Inhibition of human CYP2C9
Details: not given

Sequence of Cytochrome P450 2C9 (P11712 whole entry): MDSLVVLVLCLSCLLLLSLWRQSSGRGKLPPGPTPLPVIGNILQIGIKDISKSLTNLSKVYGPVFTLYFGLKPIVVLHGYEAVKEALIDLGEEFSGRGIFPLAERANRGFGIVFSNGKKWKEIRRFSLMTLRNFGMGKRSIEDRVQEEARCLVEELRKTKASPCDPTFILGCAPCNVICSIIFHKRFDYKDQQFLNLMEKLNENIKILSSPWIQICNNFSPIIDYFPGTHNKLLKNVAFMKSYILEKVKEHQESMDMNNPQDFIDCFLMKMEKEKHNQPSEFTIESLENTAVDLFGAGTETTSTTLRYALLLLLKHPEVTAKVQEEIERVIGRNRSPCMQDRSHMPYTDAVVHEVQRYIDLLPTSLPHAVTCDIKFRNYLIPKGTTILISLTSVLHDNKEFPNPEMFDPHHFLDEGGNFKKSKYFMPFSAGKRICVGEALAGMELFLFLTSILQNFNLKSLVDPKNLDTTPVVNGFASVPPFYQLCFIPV

Structure (SMILES)	Ki [µM]
c1cncc(-c2cc[nH]n2)c1	172
CNCc1ccc(-c2cccnc2)s1	33.9
NCc1cc(-c2cccnc2)n[nH]1	24.2
c1ccc(-c2ccsc2)cc1	112
Cc1csc(-c2cccnc2)n1	51.5

Continued, values first:

Ki [µM]	Structure (SMILES)
14.5	NCc1cc(-c2cccnc2)no1
111	CN(C)Cc1ccc(-c2cccnc2)o1
48.2	c1cncc(-c2ccsc2)c1

Target: Cytochrome P450 2E1 (Homo sapiens, UniProt P05181)
Test: Inhibition of human CYP2E1
Details: not given

Sequence of Cytochrome P450 2E1 (P05181 whole entry): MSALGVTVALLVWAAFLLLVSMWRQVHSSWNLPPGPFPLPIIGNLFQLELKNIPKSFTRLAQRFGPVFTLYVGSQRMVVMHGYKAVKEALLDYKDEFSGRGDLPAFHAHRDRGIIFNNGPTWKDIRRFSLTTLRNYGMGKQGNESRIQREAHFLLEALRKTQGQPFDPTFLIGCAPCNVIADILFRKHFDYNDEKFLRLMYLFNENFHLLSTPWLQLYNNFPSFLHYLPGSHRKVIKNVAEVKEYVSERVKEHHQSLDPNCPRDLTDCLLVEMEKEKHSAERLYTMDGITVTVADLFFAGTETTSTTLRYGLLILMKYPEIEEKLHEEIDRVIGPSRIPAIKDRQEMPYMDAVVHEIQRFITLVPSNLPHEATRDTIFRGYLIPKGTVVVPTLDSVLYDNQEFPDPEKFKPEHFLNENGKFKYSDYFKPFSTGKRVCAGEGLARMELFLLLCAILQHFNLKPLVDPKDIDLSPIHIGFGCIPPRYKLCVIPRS

Structure (SMILES)	Ki [µM]
c1cncc(-c2cc[nH]n2)c1	5.2
CNCc1ccc(-c2cccnc2)s1	> 400
NCc1cc(-c2cccnc2)n[nH]1	> 400
c1ccc(-c2ccsc2)cc1	9.7
Cc1csc(-c2cccnc2)n1	9.6

Results, then the compound that gave them:

Ki [µM]	Structure (SMILES)
38.9	NCc1cc(-c2cccnc2)no1
20.1	NCc1ccc(-c2cccnc2)s1
> 400	CN(C)Cc1ccc(-c2cccnc2)o1
> 400	c1cncc(-c2ccsc2)c1

Tested on: CYP2A6 over CYP2E1
Test: Selectivity for CYP2A6 over CYP2E1
Details: human

Structure (SMILES)	selectivity ratio
NCc1cc(-c2cccnc2)no1	105
c1cncc(-c2cc[nH]n2)c1	0.4
c1cncc(-c2ccsc2)c1	> 286
NCc1cc(-c2cccnc2)n[nH]1	> 690
c1ccc(-c2ccsc2)cc1	> 32.3
Cc1csc(-c2cccnc2)n1	2.3

Target: T2, Cytochrome P450 2A6 (Homo sapiens, UniProt P11509)
T2 sequence (P11509 whole entry): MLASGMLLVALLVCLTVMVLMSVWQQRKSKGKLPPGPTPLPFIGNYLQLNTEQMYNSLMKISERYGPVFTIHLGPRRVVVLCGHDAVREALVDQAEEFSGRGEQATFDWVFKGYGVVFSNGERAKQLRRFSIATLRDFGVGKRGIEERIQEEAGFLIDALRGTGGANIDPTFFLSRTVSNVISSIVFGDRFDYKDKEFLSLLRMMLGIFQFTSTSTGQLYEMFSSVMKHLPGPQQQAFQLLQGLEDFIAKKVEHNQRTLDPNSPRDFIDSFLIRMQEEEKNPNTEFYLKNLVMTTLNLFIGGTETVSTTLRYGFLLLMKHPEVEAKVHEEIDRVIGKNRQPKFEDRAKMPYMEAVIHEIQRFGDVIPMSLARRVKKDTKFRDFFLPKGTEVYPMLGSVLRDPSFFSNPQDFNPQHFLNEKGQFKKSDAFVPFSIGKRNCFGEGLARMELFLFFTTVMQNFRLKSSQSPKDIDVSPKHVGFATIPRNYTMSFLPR
Test: Inhibition of human CYP2A6
Details: not given

Structure (SMILES)	Ki [µM]
c1cncc(-c2cc[nH]n2)c1	12.8
CNCc1ccc(-c2cccnc2)s1	0.6
NCc1cc(-c2cccnc2)n[nH]1	0.3
c1ccc(-c2ccsc2)cc1	3.3
Cc1csc(-c2cccnc2)n1	4.1

Results, then the compound that gave them:

Ki [µM]	Structure (SMILES)
0.4	NCc1cc(-c2cccnc2)no1
0.7	c1cncc(-c2ccsc2)c1

Tested on: not listed separately
Test: Stability in human liver microsome
Details: liver microsomes

Structure (SMILES)	half-life [h]
Cc1ccsc1-c1cccnc1	0.533
c1cncc(-c2cc[nH]n2)c1	1.65
Cc1nccn1-c1cccnc1	2.22
CNCc1ccc(-c2cccnc2)s1	1.6
NCc1cc(-c2cccnc2)n[nH]1	3.97
c1ccc(-c2ccsc2)cc1	5.25

Second part, the compound after the results:

half-life [h]	Structure (SMILES)
6.68	NCc1cc(-c2cccnc2)no1
4.52	c1cncc(-c2ccsc2)c1

Same assay, conditions: microsomes

Structure (SMILES)	half-life [h]
NCc1ccc(-c2cccnc2)s1	0.65
Cc1csc(-c2cccnc2)n1	0.6
